Read-outs that look alike come from different tables or passages of the source.
Test: Study 1: single-escalating oral dose pharmacokinetics in healthy adult subjects
Assay type: in vivo, human
Settings: for Cmax / AUC0-tlast / AUC0-∞ / CL/F / t1/2: geometric mean
Protocol: Study 1 was the first-in-human study that investigated the safety, tolerability, and PK of single-escalating doses of Compound 1, given orally, to healthy adult subjects. […] The data from this study were used for the selection of doses for Study 2.
In Study 1, Compound 1 was administered to healthy adult subjects as a single PO dose of 2, 10, 50, 150, 400, or 800 mg in the fed state and 150 mg in the fasted state. Absorption occurred moderately late, achieving peak Cmax between 4 to 6 hours following dosing in the fed state.
When Compound 1 was given in the fed state, median time to reach maximum plasma concentration (Tmax) occurred between 4 and 6 hours.
As part of this single-dose escalation study, a food effect PK investigation was performed to examine Compound 1 exposures in both the fed and fasted states at the 150-mg dose level. A total of 6 subjects were administered 150 mg Compound 1 in each of these 2 dosing groups. Of these 6 subjects, 4 subjects received Compound 1 at the same dose in both fed and fasted states. […] Table 6 provides a summary of the PK parameters at the 150-mg dose level under both fed and fasted state conditions.
PK parameters AUC0-∞ and Cmax were analyzed separately for dose proportionality for Compound 1 from 50 to 800 mg when administered in the fed state. […] Dose proportionality across administered doses in the fed state could not be concluded on the basis of AUC0-∞ or Cmax.

[1] = single oral dose 150 mg, fasted

CCC(CC)c1cc(C)nc2c(-c3sc(N4CCOCC4)nc3Cl)c(C)nn12 [Compound 1, 3-(4-Chloro-2-(morpholin-4-yl)thiazol-5-yl)-7-(1-ethylpropyl)-2,5-dimethylpyrazolo(1,5-a)pyrimidine]
increase of AUC0-∞ for every doubling of dose, relative to dose proportionality (50 to 800 mg, fed state): 1.74 times
mean AUC0-∞, fed state relative to fasted state (150-mg dose, fed vs fasted): approximately 3 fold
mean Cmax, fed state relative to fasted state (150-mg dose, fed vs fasted): ~11 fold
half-life (human, plasma, single PO dose, fed and fasted state, overall range, read-out: half-life (t1/2), range): 11 to 101 h
Tmax (human, plasma, single oral dose 150 mg, fasted state, range, read-out: Tmax, range): 6 to 12 h
Tmax (single oral dose 2 mg, fed, median): 6.00 h
Cmax (single oral dose 2 mg, fed, plasma): 0.867 ng/mL
Tmax (single oral dose 10 mg, fed, median): 4.00 h
Cmax (single oral dose 10 mg, fed, plasma): 3.01 ng/mL
AUC0-tlast (single oral dose 50 mg, fed): 152 ng·h/mL
AUC0-∞ (single oral dose 50 mg, fed): 165 ng·h/mL
CL/F (single oral dose 50 mg, fed): 302 L/h
t1/2 (single oral dose 50 mg, fed): 31 h
Tmax (single oral dose 50 mg, fed, median): 4.00 h
Cmax (single oral dose 50 mg, fed, plasma): 19.5 ng/mL
AUC0-tlast [1]: 288 ng·h/mL
AUC0-∞ [1]: 331 ng·h/mL
CL/F [1]: 454 L/h
t1/2 [1]: 38.4 h
Tmax (single oral dose 150 mg, fasted, median): 10.05 h
Cmax (single oral dose 150 mg, fasted, plasma): 8.22 ng/mL
AUC0-tlast (single oral dose 150 mg, fed): 891 ng·h/mL
AUC0-∞ (single oral dose 150 mg, fed): 956 ng·h/mL
CL/F (single oral dose 150 mg, fed): 157 L/h
t1/2 (single oral dose 150 mg, fed): 29.2 h
Tmax (single oral dose 150 mg, fed, median): 4.00 h
Cmax (single oral dose 150 mg, fed, plasma): 93.4 ng/mL
AUC0-tlast (single oral dose 400 mg, fed): 2300 ng·h/mL
AUC0-∞ (single oral dose 400 mg, fed): 2580 ng·h/mL
CL/F (single oral dose 400 mg, fed): 155 L/h
t1/2 (single oral dose 400 mg, fed): 44.2 h
Tmax (single oral dose 400 mg, fed, median): 4.00 h
Cmax (single oral dose 400 mg, fed, plasma): 207 ng/mL
AUC0-tlast (single oral dose 800 mg, fed): 4390 ng·h/mL
AUC0-∞ (single oral dose 800 mg, fed): 4850 ng·h/mL
CL/F (single oral dose 800 mg, fed): 165 L/h
t1/2 (single oral dose 800 mg, fed): 41.9 h
Tmax (single oral dose 800 mg, fed, median): 6.00 h
Cmax (single oral dose 800 mg, fed, plasma): 382 ng/mL

From patent US20210137935A1, “CORTICOTROPIN RELEASING FACTOR RECEPTOR ANTAGONISTS” (Spruce Biosciences, Inc., priority 2017, published 2021)
